According to ChEMBL document CHEMBL1125171, “Approaches to isozyme-specific inhibitors. 17. Attachment of a selectivity-inducing substituent to a multisubstrate adduct. Implications for facilitated design of potent, isozyme-selective inhibitors” (J Med Chem, 1990):
pKi: −log10 of the molar value.

Columns and labels:
[1] = Ratio of inhibitor constant for ATP substrate site of methionine adenosyl transferase and ATP substrate site of M-2 variant methionine adenosyl transferase
[2] = target: S-adenosylmethionine synthase isoform type-2 (Rattus norvegicus) (UniProt P18298); assay: Inhibition constants against ATP substrate site of M-2 (kidney form) variant of rat Methionine adenosyltransferase
S-adenosylmethionine synthase isoform type-2 (Rattus norvegicus), sequence (P18298 whole entry, looked up, stated change not applied, canonical isoform): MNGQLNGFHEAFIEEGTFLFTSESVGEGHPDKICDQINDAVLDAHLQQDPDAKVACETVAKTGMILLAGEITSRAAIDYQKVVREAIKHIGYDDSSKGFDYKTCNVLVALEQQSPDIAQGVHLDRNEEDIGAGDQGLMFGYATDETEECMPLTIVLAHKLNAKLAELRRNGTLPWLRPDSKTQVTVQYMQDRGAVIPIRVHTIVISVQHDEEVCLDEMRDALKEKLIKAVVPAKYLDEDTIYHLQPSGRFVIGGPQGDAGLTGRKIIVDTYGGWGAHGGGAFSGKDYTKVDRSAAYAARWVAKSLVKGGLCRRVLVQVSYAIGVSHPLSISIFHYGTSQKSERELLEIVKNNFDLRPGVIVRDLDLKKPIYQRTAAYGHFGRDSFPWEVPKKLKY

[3] = Ratio of inhibitor constant for Met substrate site of methionine adenosyl transferase and ATP substrate site of M-T variant methionine adenosyl transferase
[4] = target: S-adenosylmethionine synthase isoform type-2 (Rattus norvegicus) (UniProt P18298); assay: Inhibition constants against ATP substrate site of M-T (Novikoff Ascitic Hepatoma form) variant of rat Methionine adenosyltransferase
[5] = target: S-adenosylmethionine synthase isoform type-2 (Rattus norvegicus) (UniProt P18298); assay: Inhibition constants with Met (L-methionine) substrate site of M-2 (kidney form) variant of rat Methionine adenosyltransferase
[6] = Ratio of inhibitor constant for ATP substrate site of methionine adenosyl transferase and ATP substrate site of M-T variant methionine adenosyl transferase
[7] = target: S-adenosylmethionine synthase isoform type-2 (Rattus norvegicus) (UniProt P18298); assay: Inhibition constants against Met (L-methionine)P substrate site of M-T (Novikoff Ascitic Hepatoma form) variant of rat Methionine adenosyltransferase
[8] = Ratio of inhibitor constant for Met substrate site of methionine adenosyl transferase and ATP substrate site of M-2 variant methionine adenosyl transferase

SMILES | Ratio [1] | pKi [2] | Ratio [3] | pKi [4] | pKi [5] | Ratio [6] | pKi [7] | Ratio [8]
CCCCSc1ncnc2c1ncn2[C@@H]1O[C@H]([C@H](CSCC[C@H](N)C(=O)O)OP(=O)(O)OP(=O)(O)NP(=O)(O)O)[C@@H](O)[C@H]1O | 1170 | 6.92 | 22 | 6.96 | 5.54 | 1270 | 6.13 | 1.7
CCCCSc1ncnc2c1ncn2[C@@H]1O[C@H](COP(=O)(O)OP(=O)(O)OP(=O)(O)O)[C@@H](O)[C@H]1O | 0.45 | 3.51 |  | 4.00 |  | 1.4 |  | 
Nc1ncnc2c1ncn2[C@@H]1O[C@H]([C@H](CSCCC(N)C(=O)O)OP(=O)(O)OP(=O)(O)NP(=O)(O)O)[C@@H](O)[C@H]1O (stereo not given in full) | 1080 | 6.89 | 22 | 6.68 | 6.19 | 670 | 6.17 | 7.7
